Holding throughout (assay): whole plant or invertebrate
Holding throughout (format): in vivo

In assay [1] the test system is sweetpotato whitefly (Bemisia tabaci (Gennadius)). To be noted: 312 h, cotton plant infested with eggs, assessed after 13 days; for mortality at 50 ppm: sprayed at 50 ppm; for mortality at 10 ppm: tested at 10 ppm. The procedure:
(§1) Test compounds were formulated using a solution containing 10% acetone, 90% water and 300 ppm Activator 90® non-ionic surfactant (Loveland Products, Loveland, Colorado, USA). The formulated compounds were applied in 1 mL of liquid through an atomizer nozzle positioned 1.27 cm (0.5 inches) above the top of each test unit. Test compounds were sprayed at the rates indicated, and each test was replicated three times.
For evaluating control of the sweetpotato whitefly (Bemisia tabaci (Gennadius)) through contact and/or systemic means, the test unit consisted of a small open container with a 12-14-day-old cotton plant inside. Prior to the spray application, both cotyledons were removed from the plant, leaving one true leaf for the assay. Adult whiteflies were allowed to lay eggs on the plant and then were removed from the test unit. Cotton plants infested with at least 15 eggs were submitted to the test for spraying.
[…] After spraying, the test units were allowed to dry for 1 hour. The cylinders were then removed, and the units were taken to a growth chamber and held for 13 days at 28° C. and 50-70% relative humidity. Each test unit was then visually assessed for insect mortality.

Assay [2] relates to corn planthopper (Peregrinus maidis (Ashmead)). The note with it: 144 h, corn plant, nymphs, assessed after 6 days; for mortality at 10 ppm: sprayed at 10 ppm; for mortality at 50 ppm: sprayed at 50 ppm. The procedure: as §1
For evaluating control of corn planthopper (Peregrinus maidis (Ashmead)) through contact and/or systemic means, the test unit consisted of a small open container with a 3-4-day-old corn (maize) plant inside. White sand was added to the top of the soil prior to application of the test compound.
Test compounds were formulated and sprayed at 250 and/or 50 ppm and/or 10 ppm. After spraying of the formulated test compound, the test units were allowed to dry for 1 h before they were post-infested with ˜15-20 nymphs (18-to-21-day-old). A black, screened cap was placed on the top of each test unit, and the test units were held for 6 days in a growth chamber at 22-24° C. and 50-70% relative humidity. Each test unit was then visually assessed for insect mortality.

In assay [3] the test system is cotton melon aphid (Aphis gossypii (Glover)). The note with it: 144 h, okra plant, assessed after 6 days; for mortality at 50 ppm: sprayed at 50 ppm; for mortality at 10 ppm: tested at 10 ppm. Here is the method:
as §1
For evaluating control of cotton melon aphid (Aphis gossypii (Glover)) through contact and/or systemic means, the test unit consisted of a small open container with a 5-day-old okra plant inside. This was pre-infested with 30-40 insects on a piece of leaf according to the cut-leaf method, and the soil of the test unit was covered with a layer of sand.
[…] After spraying, the test units were maintained in a growth chamber for 6 days at 19° C. and 70% relative humidity. Each test unit was then visually assessed for insect mortality.

The subject of assay [4] is green peach aphid (Myzus persicae (Sulzer)). The note with it: 144 h, sprayed at 50 ppm, radish plant, assessed after 6 days. Here is the method:
as §1
For evaluating control of green peach aphid (Myzus persicae (Sulzer)) through contact and/or systemic means, the test unit consisted of a small open container with a 12-15-day-old radish plant inside. This was pre-infested by placing on a leaf of the test plant 30-40 aphids on a piece of leaf excised from a culture plant (cut-leaf method). The aphids moved onto the test plant as the leaf piece desiccated. After pre-infestation, the soil of the test unit was covered with a layer of sand.
Test compounds were formulated and sprayed at 250 and/or 50 ppm. After spraying of the formulated test compound, each test unit was allowed to dry for 1 hour and then a black, screened cap was placed on top. The test units were held for 6 days in a growth chamber at 19-21° C. and 50-70% relative humidity. Each test unit was then visually assessed for insect mortality.

Where only a bound is given, the exact number is not on record here.

Regarding `CCC(c1ccc(SC(F)(F)F)cc1)c1c(F)cncc1-n1nccn1` (centres unmarked) [Compound 57], the mortality (as a rule, the share of the test organisms that died) at 50 ppm in assay [1] is at least 70%; in assay [2], at least 80%; in assay [3] it was at least 80%. Also, the mortality at 10 ppm in assay [1] was at least 70%; in assay [2], at least 80%.
Regarding `CC(c1ccc(OC(F)(F)F)cc1)c1c(F)cncc1-n1nccn1` (centres unmarked) [Compound 9, 3-fluoro-5-(triazol-2-yl)-4-[1-[4-(trifluoromethoxy)phenyl]ethyl]pyridine], the mortality at 50 ppm was at least 80% in assay [4], at least 70% in assay [1], at least 80% in assay [2] and at least 80% in assay [3]. Besides, the mortality at 10 ppm in assay [2] and in assay [3] was at least 80% throughout.
With `[O-][S+](c1ccc(Cc2c(Cl)cncc2-n2nccn2)cc1)C(F)(F)F` (centres unmarked) [Compound 22], the mortality at 50 ppm is at least 80% in assay [4], at least 70% in assay [1] and at least 80% in assay [3].
For the compound `FC(F)Oc1ccc(Cc2c(Cl)cncc2-n2nccn2)cc1` [Compound 46], the mortality at 50 ppm in assay [1] was at least 70%; in assay [2], at least 80%; in assay [3], at least 80%. The results for the mortality at 10 ppm in assay [1] and in assay [2] were at least 70% and at least 80%, respectively.
With `FC(F)Oc1ccc(Cc2c(Cl)cncc2-n2cccn2)cc1` [Compound 45], the mortality at 50 ppm in assay [1] is at least 70%; in assay [2], at least 80%; in assay [3], at least 80%. Also, the mortality at 10 ppm in assay [2] was at least 80%.
With `CC(c1ccc(SC(F)(F)F)cc1)c1c(F)cncc1-n1ccnn1` (centres unmarked) [Compound 11], the mortality at 50 ppm in assay [2] and in assay [3] was at least 80% in each case.
Take `[O-][S+](c1ccc(Cc2c(F)cncc2-n2nccn2)cc1)C(F)(F)F` (centres unmarked) [Compound 18]: the mortality at 50 ppm in assay [4] is at least 80%; in assay [1] it was at least 70%; in assay [2] it was at least 80%; in assay [3], at least 80%.
As for `Fc1cc(Cc2c(Cl)cncc2-n2nccn2)ccc1C(F)(F)F` [Compound 72], the mortality at 50 ppm in assay [4] is at least 80%; in assay [1], at least 70%; in assay [2], at least 80%; in assay [3], at least 80%. For the same compound, the mortality at 10 ppm in assay [2] was at least 80%.
Turning to `FC(F)(F)Sc1ccc(Cc2ccncc2-n2nccn2)cc1` [Compound 23], the mortality at 50 ppm in assay [4] is at least 80%; in assay [1], at least 70%; in assay [2] it was at least 80%; in assay [3], at least 80%. In addition, the mortality at 10 ppm in assay [2] is at least 80%.
In assay [2], `Fc1cncc(-c2ncco2)c1Cc1ccc(SC(F)(F)F)cc1` [Compound 30] returned a mortality at 10 ppm of at least 80% and a mortality at 50 ppm of at least 80%. In assay [3], this compound gave a mortality at 50 ppm of at least 80% and a mortality at 10 ppm of at least 80%.
For the compound `FC(F)(F)Oc1ccc(Cc2c(Cl)cncc2-n2nccn2)cc1Br` [Compound 68], the values for the mortality at 50 ppm in assay [4], in assay [1] and in assay [2] were at least 80%, at least 70% and at least 80%, respectively. Also, the mortality at 10 ppm is at least 70% in assay [1] and at least 80% in assay [2].
In the case of `Fc1cncc(-c2nccs2)c1Cc1ccc(OC(F)(F)F)cc1` [Compound 40], the mortality at 50 ppm is at least 70% in assay [1], at least 80% in assay [2] and at least 80% in assay [3]. Also, the mortality at 10 ppm in assay [1] was at least 70%; in assay [2], at least 80%; in assay [3] it was at least 80%.
Take `CC(c1ccc(OC(F)(F)F)cc1)c1c(F)cncc1-c1nccs1` (centres unmarked) [Compound 63]: the mortality at 50 ppm was at least 80% in assay [4], at least 70% in assay [1], at least 80% in assay [2] and at least 80% in assay [3]. In addition, the mortality at 10 ppm in assay [2] and in assay [3] was at least 80% each time.
As for `CC(c1ccc(SC(F)(F)F)cc1)c1c(Cl)cncc1-n1nccn1` (centres unmarked) [Compound 14], the mortality at 50 ppm in assay [4] is at least 80%; in assay [1] it was at least 70%; in assay [3], at least 80%.
As for `FC(F)(F)Oc1ccc(Cc2c(I)cncc2-n2nccn2)cc1` [Compound 17], the mortality at 50 ppm in assay [1] is at least 70%; in assay [3] it was at least 80%.
As to `CC(c1ccc(SC(F)(F)F)cc1)c1c(F)cncc1-c1nccs1` (centres unmarked) [Compound 54], the figures for the mortality at 50 ppm in assay [1], in assay [2] and in assay [3] were at least 70%, at least 80% and at least 80%, respectively. The mortality at 10 ppm in assay [2] was at least 80%.
Take `Fc1cncc(-n2nccn2)c1Cc1cccc(OC(F)(F)C(F)F)c1` [Compound 65]: the mortality at 50 ppm in assay [2] and in assay [3] was at least 80% throughout.
Regarding `Fc1cc(Cc2c(F)cncc2-n2nccn2)ccc1OC(F)(F)F` [Compound 66], the mortality at 50 ppm in assay [1] was at least 70%; in assay [2], at least 80%; in assay [3] it was at least 80%. Further, the mortality at 10 ppm in assay [2] and in assay [3] was at least 80% in each case.
On to `CC(c1ccc(SC(F)(F)F)cc1)c1c(F)cncc1-n1cncn1` (centres unmarked) [Compound 52], for which the mortality at 50 ppm in assay [4] is at least 80%; in assay [1] it was at least 70%; in assay [2], at least 80%; in assay [3] it was at least 80%.
In the case of `Fc1cncc(-n2nccn2)c1Cc1ccc(OC(F)(F)F)c(Br)c1` [Compound 69], the mortality at 50 ppm in assay [4] was at least 80%; in assay [1], at least 70%; in assay [2], at least 80%; in assay [3], at least 80%. The compound further registered a mortality at 10 ppm in assay [2] of at least 80%.
In the case of `CCC(c1ccc(OC(F)(F)F)cc1)c1c(F)cncc1-n1nccn1` (centres unmarked) [Compound 60], the mortality at 50 ppm is at least 70% in assay [1], at least 80% in assay [2] and at least 80% in assay [3]. This compound also came in with a mortality at 10 ppm in assay [1] of at least 70%.
As for `FC(F)(F)Oc1ccc(Cc2ccncc2-n2nccn2)cc1` [Compound 16], the mortality at 50 ppm in assay [1] was at least 70%; in assay [2], at least 80%; in assay [3] it was at least 80%. For the same compound, the mortality at 10 ppm in assay [3] was at least 80%.
As to `FC(F)(F)Sc1ccc(Cc2c(Cl)cncc2-c2nccs2)cc1` [Compound 35], the mortality at 50 ppm in assay [1] was at least 70%; in assay [2], at least 80%; in assay [3] it was at least 80%.
As for `FC(F)(F)Sc1ccc(Cc2c(Cl)cncc2-n2ccnn2)cc1` [Compound 6], the mortality at 50 ppm is at least 70% in assay [1] and at least 80% in assay [2].
For `FC(F)(F)Oc1ccc(Cc2c(Cl)cncc2-n2nccn2)cc1` [Compound 12], the mortality at 50 ppm in assay [4], in assay [2] and in assay [3] was at least 80% throughout. This compound yielded a mortality at 10 ppm in assay [2] of at least 80%.
Turning to `FC(F)(F)Oc1ccc(Cc2c(Br)cncc2-n2nccn2)cc1` [Compound 15], the mortality at 50 ppm was at least 80% in assay [4], at least 70% in assay [1] and at least 80% in assay [3].
Compound `FC(F)(F)Sc1ccc(Cc2c(Cl)cncc2-c2ncco2)cc1` [Compound 37] returned a mortality at 50 ppm in assay [2] of at least 80%.
`CC(c1ccc(SC(F)(F)F)cc1)c1c(F)cncc1-n1cccn1` (centres unmarked) [Compound 50]: the mortality at 50 ppm in assay [2] and in assay [3] was at least 80% in each case.
In assay [2], `Fc1cc(Cc2c(F)cncc2-n2nccn2)ccc1C(F)(F)F` [Compound 73] had a mortality at 10 ppm of at least 80% and a mortality at 50 ppm of at least 80%. In assay [3], this compound registered a mortality at 50 ppm of at least 80% and a mortality at 10 ppm of at least 80%.
On to `Fc1cncc(-c2ncco2)c1Cc1ccc(OC(F)(F)F)cc1` [Compound 41], for which the mortality at 10 ppm in assay [2] and in assay [3] was at least 80% each time. The mortality at 50 ppm in assay [2] and in assay [3] was at least 80% throughout.

Source of the values: patent publication US20240365784A1, “AZOLE COMPOUNDS FOR CONTROLLING INVERTEBRATE PESTS” (FMC Corporation, priority 2021, published 2024).
